Results on nine compounds are retold here after patent publication US7597904B2, “Metalloproteinase inhibitory agent” (Nestec S.A., priority 2004, dated 2009).

The target of one experiment is T1, ACE (Homo sapiens, UniProt P12821).
T1 construct: purchased
Put plainly: Angiotensin-converting-enzyme inhibitory test, FAPGG substrate. The experiment is classed as biochemical. The note with it: substrate N-[3-2(furyl)acryloyl]L-phenylalanylglycylglycine; read-out: IC50 for the inhibition of ACE. The protocol:
Angiotensin-Converting-Enzyme Inhibitory Test
This procedure is a rapid spectrophotometric method utilizing the synthetic tripeptide substrate N-[3-(2-furyl)acryloil]-L-phenylalanylglycylglycine (FAPGG). Km-value: 0.3 mM.
FAPGG was hydrolysed to furylacryloylphenylalanine (FAP) and glycylgylcine.
The ACE reagent and the ACE Calibrator were reconstituted according to the manufacturer's recommendations.
The assay was performed in quartz cuvets. 0.05 ml ACE Reagent Solution, 0.05 ml casein hydrolysate and 0.05 ml ACE calibrator were mixed and incubated at 37° C. for 10 minutes.
The absorbance at 340 nm was measured as a function of time.
The ACE activity in the sample was determined by comparing the sample reaction rate to that obtained with the ACE calibrator. The results are expressed as percentage with respect to the control.

A further experiment has as its target T2, MMP-7 (Homo sapiens, UniProt P09237).
T2 sequence (P09237 95-267): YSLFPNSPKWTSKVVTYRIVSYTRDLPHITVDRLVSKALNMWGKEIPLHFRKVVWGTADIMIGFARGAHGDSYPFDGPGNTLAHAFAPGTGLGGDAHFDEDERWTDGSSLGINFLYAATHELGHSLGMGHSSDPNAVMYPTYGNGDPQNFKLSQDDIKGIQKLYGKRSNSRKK
As to the kind of experiment: Matrix metalloproteinase inhibitory test, DQ-gelatin substrate. The note with it: flourescein conjugated gelatin; read-out: IC50 for the inhibition of MMP-7. The experiment is classed as biochemical. The method, then: (§1) Matrix Metalloproteinase Inhibitory Test
(§2) The assay was performed in microtiter plates. In each single well 1 μl enzyme, the inhibitor at the desired concentration and finally 5 μl substrate were added to PBS buffer (pH 7.0-7.5), final volume: 200 μl. The reaction mixture was incubated at 37° C. for 2 hours. The increase in fluorescence was continuously recorded, exciting at 485 nm and reading the emission at 530 nm, with a gain of 40.
(§3) Inhibitors:— o-phenantroline: 9.9 mg in 25 μl DMF (dimethylformamide→add 1 μl (final concentration: 10 mM) • synthetic inhibitors at different concentrations
(§4) Substrate: DQ-gelatin: 1 mg/ml in PBS→add 5 μl to the reaction (reaction volume: 200 μl) (final concentration: […])
(§5) Enzymes: • MMP-7: stock solution: 1 U/μl • MMP-2: stock solution: 0.05 μg/μl • MMP-9: stock solution: 0.05 μg/μl Results & Discussion Generation of the Peptide Library with Lb. helveticus CNCM I-2864 . . .

The next experiment concerns the target MMP-9 (Homo sapiens, UniProt P14780). The description is as above. The experiment is classed as biochemical. The note with it: flourescein conjugated gelatin; read-out: IC50 for the inhibition of MMP-9. The method, then:
as §1, §2, §3, §4, §5

In a further experiment the target is T3, MMP-2 (Homo sapiens, UniProt P08253).
T3 sequence (P08253 110-660): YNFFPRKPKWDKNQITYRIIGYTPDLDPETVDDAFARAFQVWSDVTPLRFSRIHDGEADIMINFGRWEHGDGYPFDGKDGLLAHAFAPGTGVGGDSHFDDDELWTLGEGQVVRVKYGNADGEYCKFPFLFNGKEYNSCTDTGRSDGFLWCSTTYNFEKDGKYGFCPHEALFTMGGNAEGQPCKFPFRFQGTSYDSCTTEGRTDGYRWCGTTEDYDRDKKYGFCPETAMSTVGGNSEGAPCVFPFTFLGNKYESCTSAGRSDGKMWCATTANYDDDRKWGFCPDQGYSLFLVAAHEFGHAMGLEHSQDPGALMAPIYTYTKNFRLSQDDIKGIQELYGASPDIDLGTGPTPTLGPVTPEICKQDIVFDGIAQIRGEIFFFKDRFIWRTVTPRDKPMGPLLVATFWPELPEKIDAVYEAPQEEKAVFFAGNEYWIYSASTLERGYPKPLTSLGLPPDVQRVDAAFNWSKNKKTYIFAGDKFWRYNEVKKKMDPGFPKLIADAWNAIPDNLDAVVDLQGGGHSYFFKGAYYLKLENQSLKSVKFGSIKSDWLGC
The experiment is described as above. The experiment is classed as biochemical. The note with it: flourescein conjugated gelatin; read-out: IC50 for the inhibition of MMP-2. The protocol: as §1, §2, §3, §4, §5

The next experiment has as its system HT-29 cells. As to the kind of experiment: Proliferation of HT-29 cells with synthetic peptides (percentage of counts). The experiment is classed as cell-based, human. The note with it: for antiproliferative activity of synthetic peptides (in words): HT-29 cells. The protocol:
Undifferentiated cells (passages 45-78) were maintained in glucose-containing DMEM supplemented with 10% FCS at 37° C. in a 5% CO2/air incubator. Culture medium was changed every two days until the cell monolayers reached 50% confluence. For stimulation assays, HT-29 cells were plated at 1.2*10^4 cells/well in 96-well flat-bottom plates. After incubation for 4 days, the amount of cells present in the wells before incubation with the samples was assessed adding neutral red solution in 4 wells and incubating the plate for 45 min. The HT-29 cells were then washed twice with serum-free media (inclusive the wells with neutral red solution). The wells colored with neutral red remained from now on free of any media.
Synthetic peptides that were tested on HT-29 cell line confirmed their antiproliferative potential.
The same experiment was performed with a shorter version of the former mentioned peptide: ENLLRFFVAPFPEVFG (SEQ ID NO:22) (αS1 33-48).

The subject of a further experiment is MMPs. The note with it: background statement; cited from earlier work.
The next experiment relates to MMP. Put plainly: Matrix metalloproteinase inhibitory test, positive control. It counts as biochemical. The note with it: 10 mM concentration; data not shown. The protocol: as §1, §2, §3

Residues, ends and D or L forms follow the SMILES beside them.

T1 sequence (P12821 30-1306, species assumed): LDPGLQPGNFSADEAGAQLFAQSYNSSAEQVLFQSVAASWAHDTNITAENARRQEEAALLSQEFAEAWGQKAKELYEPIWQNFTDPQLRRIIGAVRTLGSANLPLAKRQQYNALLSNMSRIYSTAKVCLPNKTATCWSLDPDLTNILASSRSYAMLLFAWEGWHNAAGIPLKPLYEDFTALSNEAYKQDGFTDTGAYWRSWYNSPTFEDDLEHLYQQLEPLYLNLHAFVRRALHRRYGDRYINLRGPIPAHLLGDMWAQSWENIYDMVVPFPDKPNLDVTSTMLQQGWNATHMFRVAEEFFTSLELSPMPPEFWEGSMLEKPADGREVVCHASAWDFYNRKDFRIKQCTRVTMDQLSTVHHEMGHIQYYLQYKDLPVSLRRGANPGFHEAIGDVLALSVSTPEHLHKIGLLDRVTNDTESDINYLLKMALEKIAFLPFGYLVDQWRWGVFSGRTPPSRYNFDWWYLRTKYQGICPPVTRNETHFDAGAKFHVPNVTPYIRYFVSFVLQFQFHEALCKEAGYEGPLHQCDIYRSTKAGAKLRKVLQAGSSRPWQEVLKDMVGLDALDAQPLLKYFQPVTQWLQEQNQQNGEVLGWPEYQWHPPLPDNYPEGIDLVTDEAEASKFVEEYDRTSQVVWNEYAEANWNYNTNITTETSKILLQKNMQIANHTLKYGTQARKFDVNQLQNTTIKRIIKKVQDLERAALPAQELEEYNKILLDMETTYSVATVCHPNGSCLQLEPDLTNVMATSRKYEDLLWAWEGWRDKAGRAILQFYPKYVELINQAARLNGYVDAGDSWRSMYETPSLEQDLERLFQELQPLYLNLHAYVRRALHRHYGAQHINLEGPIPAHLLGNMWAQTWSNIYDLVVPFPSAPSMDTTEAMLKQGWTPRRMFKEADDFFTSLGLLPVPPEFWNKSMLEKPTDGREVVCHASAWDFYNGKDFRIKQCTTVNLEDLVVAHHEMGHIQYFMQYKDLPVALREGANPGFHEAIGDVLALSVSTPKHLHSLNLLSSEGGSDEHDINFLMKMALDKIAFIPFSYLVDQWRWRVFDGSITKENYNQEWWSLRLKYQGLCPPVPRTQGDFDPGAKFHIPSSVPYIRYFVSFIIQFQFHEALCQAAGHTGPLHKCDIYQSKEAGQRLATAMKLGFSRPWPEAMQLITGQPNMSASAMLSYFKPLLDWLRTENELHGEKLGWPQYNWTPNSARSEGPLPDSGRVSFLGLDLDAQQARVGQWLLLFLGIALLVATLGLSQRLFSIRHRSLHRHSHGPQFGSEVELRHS
MMP-9, sequence (P14780 94-707, species assumed): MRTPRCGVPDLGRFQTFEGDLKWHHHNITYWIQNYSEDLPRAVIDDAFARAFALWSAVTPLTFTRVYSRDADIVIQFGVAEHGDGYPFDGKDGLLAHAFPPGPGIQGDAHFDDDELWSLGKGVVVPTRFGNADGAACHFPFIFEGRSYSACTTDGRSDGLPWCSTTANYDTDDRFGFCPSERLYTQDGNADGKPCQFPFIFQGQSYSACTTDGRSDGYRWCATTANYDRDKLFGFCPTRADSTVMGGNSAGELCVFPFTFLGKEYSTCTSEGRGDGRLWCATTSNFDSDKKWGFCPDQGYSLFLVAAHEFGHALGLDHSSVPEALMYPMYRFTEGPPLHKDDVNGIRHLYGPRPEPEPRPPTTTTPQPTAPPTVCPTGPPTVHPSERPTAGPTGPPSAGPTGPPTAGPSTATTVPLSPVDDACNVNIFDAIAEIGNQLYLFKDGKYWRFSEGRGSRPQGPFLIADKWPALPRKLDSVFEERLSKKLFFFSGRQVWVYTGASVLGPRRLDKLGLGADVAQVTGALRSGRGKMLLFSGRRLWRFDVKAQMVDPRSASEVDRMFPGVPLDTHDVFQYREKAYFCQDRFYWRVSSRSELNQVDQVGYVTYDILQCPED

One may read the IC50 as the midpoint of a concentration-inhibition curve. For `CC(C)C[C@H](NC(=O)[C@H](CC(C)C)NC(=O)[C@@H]1CCCN1C(=O)[C@H](CC(C)C)NC(=O)[C@@H]1CCCN1C(=O)[C@H](CC(C)C)NC(=O)[C@H](Cc1c[nH]cn1)NC(=O)[C@H](CC(C)C)NC(=O)[C@H](CC(N)=O)NC(=O)[C@@H](N)CCC(=O)O)C(=O)O` [ENLHLPLPLL] (H-ENLHLPLPLL-OH; N-terminus and C-terminus assumed), the IC50 stood at 250 µM at ACE, 275 µM on MMP-7, 300 µM at MMP-9 and 200 µM on MMP-2.
Consider `CC(C)C[C@H](NC(=O)[C@H](CC(C)C)NC(=O)[C@H](CC(N)=O)NC(=O)[C@@H](N)CCC(=O)O)C(=O)N[C@@H](CCCNC(=N)N)C(=O)N[C@@H](Cc1ccccc1)C(=O)N[C@@H](Cc1ccccc1)C(=O)N[C@H](C(=O)N[C@@H](C)C(=O)N1CCC[C@H]1C(=O)N[C@@H](Cc1ccccc1)C(=O)N1CCC[C@H]1C(=O)N[C@@H](CCC(=O)O)C(=O)N[C@H](C(=O)N[C@@H](Cc1ccccc1)C(=O)NCC(=O)O)C(C)C)C(C)C` [ENLLRFFVAPFPEVFG] (H-ENLLRFFVAPFPEVFG-OH; N-terminus and C-terminus assumed), for which the half-inhibitory concentration (IC50) worked out at 250 µM on ACE, 1000 µM at MMP-7, 150 µM on MMP-9 and 425 µM on MMP-2. The “antiproliferative activity of synthetic peptides (in words)” value in the experiment with HT-29 cells is “antiproliferative pattern similar to the one observed for LNENLLRFFVAPFPEVFG”.
Take `CC(C)[C@H](NC(=O)[C@H](CCC(=O)O)NC(=O)[C@@H]1CCCN1C(=O)[C@H](Cc1ccccc1)NC(=O)[C@@H]1CCCN1C(=O)[C@H](C)NC(=O)[C@@H](NC(=O)[C@@H](N)Cc1ccccc1)C(C)C)C(=O)N[C@@H](Cc1ccccc1)C(=O)NCC(=O)O` [FVAPFPEVFG] (H-FVAPFPEVFG-OH; N-terminus and C-terminus assumed): the IC50 on ACE is 650 µM; on MMP-7 it was 300 µM; on MMP-9, 400 µM; on MMP-2 it was 500 µM.
For the compound `CC(C)C[C@H](NC(=O)[C@H](CC(C)C)NC(=O)[C@H](CC(N)=O)NC(=O)[C@H](CCC(=O)O)NC(=O)[C@H](CC(N)=O)NC(=O)[C@@H](N)CC(C)C)C(=O)N[C@@H](CCCNC(=N)N)C(=O)N[C@@H](Cc1ccccc1)C(=O)N[C@@H](Cc1ccccc1)C(=O)N[C@H](C(=O)N[C@@H](C)C(=O)N1CCC[C@H]1C(=O)N[C@@H](Cc1ccccc1)C(=O)N1CCC[C@H]1C(=O)N[C@@H](CCC(=O)O)C(=O)N[C@H](C(=O)N[C@@H](Cc1ccccc1)C(=O)NCC(=O)O)C(C)C)C(C)C` [LNENLLRFFVAPFPEVFG] (H-LNENLLRFFVAPFPEVFG-OH; N-terminus and C-terminus assumed), the IC50 at ACE was determined as 280 µM; on MMP-7, 300 µM; at MMP-9, 150 µM; on MMP-2, 250 µM. In addition, the “antiproliferative activity of synthetic peptides (in words)” value with HT-29 cells is listed as “strongly inhibited proliferation”. The “% prolif (percentage of counts with respect to the control)” value with HT-29 cells (peptide concentration 2 μM) is on record as 56%; with HT-29 cells (peptide concentration 4 μM), 44%; in the experiment on HT-29 cells (peptide concentration 8 μM), 160%; in the experiment with HT-29 cells (peptide concentration 17 μM), 114%; in the experiment with HT-29 cells (peptide concentration 33 μM), 131%; with HT-29 cells (peptide concentration 66 μM), 119%. In addition, in the experiment on HT-29 cells (peptide concentration 133 μM), the “% prolif (percentage of counts with respect to the control)” value was 135%.
As for `CC(C)C[C@H](NC(=O)[C@H](CC(C)C)NC(=O)[C@H](CC(N)=O)NC(=O)[C@H](CCC(=O)O)NC(=O)[C@@H](N)CC(N)=O)C(=O)N[C@@H](CCCNC(=N)N)C(=O)N[C@@H](Cc1ccccc1)C(=O)N[C@@H](Cc1ccccc1)C(=O)N[C@H](C(=O)N[C@@H](C)C(=O)N1CCC[C@H]1C(=O)N[C@@H](Cc1ccccc1)C(=O)N1CCC[C@H]1C(=O)N[C@@H](CCC(=O)O)C(=O)N[C@H](C(=O)N[C@@H](Cc1ccccc1)C(=O)NCC(=O)O)C(C)C)C(C)C` [NENLLRFFVAPFPEVFG] (H-NENLLRFFVAPFPEVFG-OH; N-terminus and C-terminus assumed), the IC50 amounted to 55 µM on ACE, 850 µM on MMP-7, 50 µM on MMP-9 and 275 µM at MMP-2.
As to `CC(C)C[C@H](NC(=O)[C@H](CC(C)C)NC(=O)[C@@H]1CCCN1C(=O)[C@H](CC(C)C)NC(=O)[C@@H]1CCCN1C(=O)[C@H](CC(C)C)NC(=O)[C@H](Cc1c[nH]cn1)NC(=O)[C@H](CC(C)C)NC(=O)[C@@H](N)CC(N)=O)C(=O)O` [NLHLPLPLL] (H-NLHLPLPLL-OH; N-terminus and C-terminus assumed), the IC50 amounted to 15 µM at ACE, 1200 µM on MMP-7, 600 µM at MMP-9 and 450 µM at MMP-2.
In the case of `CC(C)C[C@H](NC(=O)[C@H](CC(C)C)NC(=O)[C@@H]1CCCN1C(=O)[C@H](CC(C)C)NC(=O)[C@@H]1CCCN1C(=O)[C@H](CC(C)C)NC(=O)[C@H](Cc1c[nH]cn1)NC(=O)[C@H](CC(C)C)NC(=O)[C@H](CC(N)=O)NC(=O)[C@H](CCC(=O)O)NC(=O)[C@@H](N)C(C)C)C(=O)O` [VENLHLPLPLL] (H-VENLHLPLPLL-OH; N-terminus and C-terminus assumed), the IC50 on ACE is 175 µM; at MMP-7 it was 250 µM; at MMP-9 it was 300 µM; at MMP-2, 150 µM.
Take `CNC(=O)[C@@H](NC(=O)[C@H](CC(C)C)[C@H](O)C(=O)NO)C(C)(C)C` [marimastat]: in the experiment with MMPs, the IC50 result is recorded as “micromolar range”.
For `c1cnc2c(c1)ccc1cccnc12` [o-phenantroline], in the experiment on MMP, the “MMP inhibition (in words)” value is on record as “complete MMP inhibition”.
